Assay results from ChEMBL document CHEMBL4052699, “Synthesis, in vitro and in vivo giardicidal activity of nitrothiazole-NSAID chimeras displaying broad antiprotozoal spectrum” (Bioorg Med Chem Lett, 2017).
Several values for one entry are separate records, joined by “and”; a condition that tells them apart may be missing. Equal values may be shown once.

How the values were obtained:
Leishmania amazonensis [1] = experiment: Antiprotozoal activity against Leishmania amazonensis IFLA/BR/67/PH-8 incubated for 72 hrs by Neubauer chamber based cell counting method; type: functional; details: IFLA/BR/67/PH-8, 72 h
Leishmania mexicana = experiment: Antiprotozoal activity against Leishmania mexicana MHOM/MX/ISETGS incubated for 72 hrs by Neubauer chamber based cell counting method; type: functional
Trypanosoma cruzi [2] = experiment: Potency index, ratio of IC50 for benznidazole to IC50 for test compound for antiprotozoal activity against Trypanosoma cruzi MHOM/MX/1994/Ninoa incubated for 72 hrs by Neubauer chamber based cell counting method; type: functional
[3] = Selectivity index, ratio of CC50 for cytotoxicity against African green monkey Vero cells to IC50 for Trichomonas vaginalis GT3
Giardia intestinalis [4] = experiment: Potency index, ratio of ED50 for metronidazole to ED50 for test compound for antigiardial activity against Giardia intestinalis WB trophozoites infected in CD1 mouse dosed intragastrically 6 days after infection and measured 48 hrs post dose; type: functional, Giardia duodenalis
[5] = Selectivity index, ratio of CC50 for cytotoxicity against African green monkey Vero cells to IC50 for Giardia intestinalis Giardia intestinalis IMSS:0696:1 (genotype A)
Trypanosoma cruzi [6] = experiment: Antiprotozoal activity against Trypanosoma cruzi MHOM/MX/1994/Ninoa incubated for 72 hrs by Neubauer chamber based cell counting method; type: functional
Trichomonas vaginalis [7] = experiment: Potency index, ratio of IC50 for nitazoxanide to IC50 for test compound for antiprotozoal activity against Trichomonas vaginalis GT3 trophozoites incubated for 48 hrs; type: functional
Trichomonas vaginalis [8] = experiment: Antiprotozoal activity against Trichomonas vaginalis GT3 trophozoites incubated for 48 hrs; type: functional; details: GT3, 48 h
[9] = Cytotoxicity against African green monkey Vero cells incubated for 24 to 48 hrs by SRB assay; type: cell-based; details: chlorocebus sabaeus
Giardia intestinalis [10] = experiment: Potency index, ratio of ED50 for nitazoxanide to ED50 for test compound for antigiardial activity against Giardia intestinalis WB trophozoites infected in CD1 mouse dosed intragastrically 6 days after infection and measured 48 hrs post dose; type: functional, Giardia duodenalis
Giardia intestinalis [11] = experiment: Antiprotozoal activity against Giardia intestinalis IMSS:0696:1 (genotype A) trophozoites incubated for 48 hrs; type: functional; details: Giardia duodenalis
[12] = Selectivity index, ratio of CC50 for cytotoxicity against African green monkey Vero cells to IC50 for Leishmania mexicana MHOM/MX/ISETGS; type: toxicity, cell-based; details: read-out: Ratio CC50/IC50
Giardia intestinalis [13] = experiment: Antigiardial activity against Giardia intestinalis WB trophozoites infected in CD1 mouse dosed intragastrically 6 days after infection and measured 48 hrs post dose; type: functional; details: Giardia duodenalis, po
Trichomonas vaginalis [14] = experiment: Potency index, ratio of IC50 for metronidazole to IC50 for test compound for antiprotozoal activity against Trichomonas vaginalis GT3 trophozoites incubated for 48 hrs; type: functional
Leishmania amazonensis [15] = experiment: Potency index, ratio of IC50 for nitazoxanide to IC50 for test compound for antiprotozoal activity against Leishmania amazonensis IFLA/BR/67/PH-8 incubated for 72 hrs by Neubauer chamber based cell counting method; type: functional
Giardia intestinalis [16] = experiment: Potency index, ratio of IC50 for nitazoxanide to IC50 for test compound for antiprotozoal activity against Giardia intestinalis IMSS:0696:1 (genotype A) trophozoites incubated for 48 hrs; type: functional, Giardia duodenalis
Leishmania amazonensis [17] = experiment: Potency index, ratio of IC50 for pentamidine to IC50 for test compound for antiprotozoal activity against Leishmania amazonensis IFLA/BR/67/PH-8 incubated for 72 hrs by Neubauer chamber based cell counting method; type: functional
Giardia intestinalis [18] = experiment: Potency index, ratio of IC50 for metronidazole to IC50 for test compound for antiprotozoal activity against Giardia intestinalis IMSS:0696:1 (genotype A) trophozoites incubated for 48 hrs; type: functional, Giardia duodenalis

Row | SMILES | IC50 (Leishmania amazonensis [1]) | IC50 (Leishmania mexicana) | Ratio IC50 (Trypanosoma cruzi [2]) | Ratio CC50/IC50 [3] | Ratio ED50 (Giardia intestinalis [4]) | Ratio CC50/IC50 [5] | IC50 (Trypanosoma cruzi [6]) | Ratio IC50 (Trichomonas vaginalis [7]) | IC50 (Trichomonas vaginalis [8]) | CC50 [9] | Ratio ED50 (Giardia intestinalis [10]) | IC50 (Giardia intestinalis [11]) | selectivity ratio [12] | ED50 (Giardia intestinalis [13]) | Ratio IC50 (Trichomonas vaginalis [14]) | Ratio IC50 (Leishmania amazonensis [15]) | Ratio IC50 (Giardia intestinalis [16]) | Ratio IC50 (Leishmania amazonensis [17]) | Ratio IC50 (Giardia intestinalis [18])
1 | CC(C)(Oc1ccc(Cl)cc1)C(=O)Nc1ncc([N+](=O)[O-])s1 | 3.43 µM | 16.6 µM | 2 | 686 | 50 - 300 | 127 | 12.2 µM | 2 | 0.032 µM | 22 µM | 50 - 300 | 0.172 µM | 6 | 0.00384 mg/kg and 0.0113 µmol/kg | 10 | – | – | – | –
2 | O=[N+]([O-])c1cncs1 | > 50 µM | > 50 µM | – | – | – | – | > 50 µM | – | 52.9 µM | 441 µM | – | 29.6 µM | – | – | – | – | – | – | –
3 | COc1ccc2c(c1)c(CC(=O)Nc1ncc([N+](=O)[O-])s1)c(C)n2C(=O)c1ccc(Cl)cc1 | 0.88 µM | 6.77 µM | – | 96 | 321 | 89 | > 50 µM | – | 0.134 µM | 13 µM | 1015 | 0.145 µM | 15 | 0.00171 mg/kg and 0.00353 µmol/kg | – | 8 | 8 | 16 | 38
4 | COc1ccc2cc([C@H](C)C(=O)Nc3ncc([N+](=O)[O-])s3)ccc2c1 | 3.64 µM | 25.5 µM | 2 | 1112 | 50 - 300 | 815 | 12.9 µM | – | 0.162 µM | 180 µM | 50 - 300 | 0.221 µM | 49 | 0.00766 mg/kg and 0.0215 µmol/kg | – | – | – | – | –
5 | O=C(Cc1ccccc1Nc1c(Cl)cccc1Cl)Nc1ncc([N+](=O)[O-])s1 | 1.89 µM | 6.12 µM | 2 | – | – | – | 15.7 µM | – | 0.218 µM | – | – | 0.147 µM | – | – | – | – | 8 | – | 38
6 | CC(C)Cc1ccc(C(C)C(=O)Nc2ncc([N+](=O)[O-])s2)cc1 (racemic) | 6.42 µM | 17.1 µM | 2 | 4475 | 50 - 300 | 887 | 15 µM | 1.7 | 0.045 µM | 201 µM | 50 - 300 | 0.227 µM | 31 | 0.00399 mg/kg and 0.012 µmol/kg | 7 | – | – | – | –
7 | O=C(Cn1ccnc1[N+](=O)[O-])NCc1ccccc1 [BENZNIDAZOLE] | > 50 µM | > 50 µM | – | – | – | – | – | – | – | – | – | – | – | – | – | – | – | – | –
8 | Cc1ncc([N+](=O)[O-])n1CCO [METRONIDAZOLE] | > 50 µM | > 50 µM | – | 1134 | – | 72 | > 50 µM | – | – | – | – | – | < 7 | – | – | – | – | – | –
9 | CCCCCCCCCCCCCCCCOP(=O)([O-])OCC[N+](C)(C)C [MILTEFOSINE] | 1.35 µM | 2.03 µM | – | – | – | – | 25.2 µM | – | 20 µM | 0.12 µM | – | 20 µM | – | – | – | – | – | – | –
10 | CC1CS(=O)(=O)CCN1/N=C/c1ccc([N+](=O)[O-])o1 (stereo unspecified) [NIFURTIMOX] | – | 3.1 µM | – | – | – | – | 7.45 µM | – | – | – | – | – | – | – | – | – | – | – | –
11 | CC(=O)Oc1ccccc1C(=O)Nc1ncc([N+](=O)[O-])s1 [NITAZOXANIDE] | – | – | 2 | – | – | – | – | – | – | – | – | – | 115 | 1.1 mg/kg and 3.58 µmol/kg | – | – | – | – | –
12 | N=C(N)c1ccc(OCCCCCOc2ccc(C(=N)N)cc2)cc1 [PENTAMIDINE] | – | – | – | 12.3 | – | 11 | > 50 µM | – | – | – | – | – | 3.2 | – | – | – | – | – | –
